Experimental data reported in PubChem BioAssay (NCI).
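Values below derive from 48-hour exposures of cells grown in 96-well plates, with endpoints linearly interpolated between the two concentrations bracketing the appropriate inhibition level. The concentration for 50% growth inhibition is given as GI50. TGI: concentration producing complete growth inhibition.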 Where a SMILES comes first, the peptide text is derived from it.

How the values were obtained:
Experiment in all cases: inhibition of tumour cell growth, NCI panel, 48 h
ACHN renal = tested on: ACHN renal
HCT-15 colon = tested on: HCT-15 colon
IGROV1 ovarian = tested on: IGROV1 ovarian
M14 melanoma = tested on: M14 melanoma
MALME-3M melanoma = tested on: MALME-3M melanoma
NCI/ADR-RES ovarian = tested on: NCI/ADR-RES ovarian
OVCAR-5 ovarian = tested on: OVCAR-5 ovarian
SF-268 CNS = tested on: SF-268 CNS
SR leukemia = tested on: SR leukemia
UO-31 renal = tested on: UO-31 renal

Row | Compound | TGI (ACHN renal) [µM] | TGI (HCT-15 colon) [µM] | TGI (IGROV1 ovarian) [µM] | TGI (M14 melanoma) [µM] | TGI (MALME-3M melanoma) [µM] | TGI (NCI/ADR-RES ovarian) [µM] | TGI (OVCAR-5 ovarian) [µM] | TGI (SF-268 CNS) [µM] | TGI (SR leukemia) [µM] | TGI (UO-31 renal) [µM] | GI50 (ACHN renal) [nM] | GI50 (HCT-15 colon) [nM] | GI50 (IGROV1 ovarian) [nM] | GI50 (M14 melanoma) [nM] | GI50 (MALME-3M melanoma) [nM] | GI50 (NCI/ADR-RES ovarian) [µM] | GI50 (OVCAR-5 ovarian) [nM] | GI50 (SF-268 CNS) [µM] | GI50 (SR leukemia) [nM] | GI50 (UO-31 renal) [nM]
1 | COc1ccc2c(c1)CCc1c(-c3noc4c3CCc3cc(OC)ccc3-4)noc1-2 | > 100 | > 100 | > 100 | > 100 | > 100 | > 100 | > 100 | > 100 | > 100 | > 100 |  |  |  |  |  |  |  |  |  | 
2 | NC1=C(Cl)C(=O)c2ccc(S(N)(=O)=O)cc2C1=O | 0.895 | 0.339 | 1.57 | 0.278 | 0.137 | 4.68 | 0.658 | 1.22 | 0.606 | 0.564 | 263 | 164 | 681 | 134 | 42.6 | 0.285 | 251 | 0.372 | 262 | 211
3 | O=C(O)C1NCCc2c1[nH]c1ccccc21 (centres undefined) | > 100 | > 100 | > 100 | > 100 | > 100 | > 10 | > 100 | > 100 | > 100 | > 100 | > 100000 | > 100000 | > 100000 | > 100000 | > 100000 |  |  | > 100 | > 100000 | 
4 | CCCCCCCC/C=C/CCCCCCCC1=NC(C)(C)CN1C(C)C | 3.01 | 2.9 | 2.14 | 2.86 | 3.27 | 3.16 | 2.88 | 3.07 | 2.42 | 2.81 | 1650 | 1510 | 868 | 1530 | 1630 | 1.54 | 1540 | 1.7 | 1020 | 1430
5 | C=C1C(=O)O[C@H]2[C@H]1CC/C(COC(=O)CCCCCCCCC(=O)OC/C1=C/CC[C@@]3(C)O[C@H]3[C@H]3OC(=O)C(=C)[C@@H]3CC1)=C\CC[C@@]1(C)O[C@@H]21 | 3.55 | 4.47 | 4.24 | 3.41 | 3.97 | 13.5 | 5.56 | 3.84 | 11 | 2.95 | 1800 | 1910 | 1970 | 1630 | 1840 | 3.14 | 2260 | 1.86 | 1390 | 1470
6 | c1cc(OCCN2CCCCCC2)ccc1CNc1ccc2nc(CCC3CCCCC3)[nH]c2c1 | 7.97 | 3.67 | 7.31 | 3.32 | 3.1 | 8.66 | 7.33 | 9.2 | 5.34 | 2.72 | 2680 | 1590 | 2040 | 1720 | 1640 | 2.64 | 2480 | 2.42 | 1730 | 1370
7 | COc1ccc(-c2cnc3ccnn3c2-c2cc(OC)c(OC)c(OC)c2)cc1 | > 100 | > 100 | > 100 | 35.5 | > 100 | > 100 | > 100 | > 100 | > 100 | > 100 | 6190 | 2120 | 5250 | 2650 | 5410 | 2.89 | 4420 | 5.86 | 1660 | 4250
8 | Cc1cc(O)c(C(c2cccnc2)c2c(O)cc(C)[nH]c2=O)c(=O)[nH]1 | > 100 | > 100 | > 100 | > 100 | > 100 | > 100 | > 100 | > 100 | > 100 | > 100 |  |  |  |  |  |  |  |  |  | 
9 | O=c1cc(-c2ccc(Cl)cc2)[nH]c2ncccc12 | > 100 | > 100 | > 100 | > 100 | > 100 | > 100 | > 100 | > 100 | 37.5 | > 100 |  |  |  |  |  |  |  |  |  | 
10 | C=C1C(=O)O[C@H]2[C@H]1CC/C(Cn1cc(Cn3ccc4ccccc43)nn1)=C\CC[C@@]1(C)O[C@@H]21 | 2.43 | 2.77 | 3.61 | 2.79 | 3.34 | 21.6 | 3.21 | 3.63 | 3.71 | 2.53 | 1180 | 1300 | 1860 | 1250 | 1590 | 5.07 | 1590 | 1.82 | 345 | 1260
11 | Cc1cc(C)c(O)c(Cc2cccc(Cc3cc(C)cc(C)c3O)c2O)c1 | > 100 | > 100 | > 100 | > 100 | > 100 | > 100 | > 100 | > 100 | > 100 | > 100 |  |  |  |  |  |  |  |  |  | 
12 | CCOC(=O)c1c(C)nc2ccc(Cl)cc2c1-c1ccccc1 | 35 | 44.6 | 61.1 | 52.3 | 42.3 | 80.2 | 44.6 | 44.4 | 48.5 | 31.1 | 17100 | 16900 | 16600 | 18700 | 17600 | 22.2 | 19800 | 19.3 | 18400 | 14800
13 | CN(C)CCCN(c1nc(C(Cl)(Cl)Cl)ns1)c1nc(C(Cl)(Cl)Cl)ns1 | 3.53 | 4.08 | 4.92 | 3.63 | 5.01 | 4.41 | 3.8 | 11.4 | 3.53 | 3.08 | 1770 | 1880 | 2270 | 1890 | 2180 | 1.89 | 1820 | 3.12 | 1490 | 1470
14 | COc1cc(C#N)cc(OC)c1OCCOCCOc1c(OC)cc(C#N)cc1OC | > 100 | > 100 | > 100 | > 100 | > 100 | > 100 | > 100 | > 100 | > 100 | > 100 | > 100000 | > 100000 | 89200 | 52200 | 58100 | 24.8 | > 100000 | > 100 | 4330 | 26400
15 | C=C1C(=O)O[C@@H]2C(=O)[C@@H](C)[C@@H]3C=CC(=O)[C@@]3(C)[C@@H](OC(=O)/C(C)=C\C)[C@H]12 | 0.609 | 2.27 | 3.28 | 8.2 | 0.948 | 7.28 | 4.69 | 6.22 | 0.712 | 2.85 |  |  |  |  |  |  |  |  |  | 
16 | CC(C)CC(NC(=O)C(CC(C)C)NC(=O)C(Cc1cnc[nH]1)NC(=O)C(C)NC(=O)C(NC(=O)C(C)NC(=O)C(Cc1c[nH]c2ccccc12)NC(=O)C(CCC(=O)O)NC(=O)C(N)Cc1ccccc1)C(C)C)C(N)=O (centres undefined) (H-FEWAVAHLL-NH2; configuration not given here) | > 100 | > 100 | > 100 | > 100 | > 12.5 | > 12.5 | > 12.5 | > 12.5 | > 100 | > 100 |  | > 100000 | > 100000 | > 100000 |  |  |  |  | > 100000 | 70900
17 | COc1ccc(/C(C)=C(\c2ccc(Cl)cc2)c2ccc(OCCN3CCCC3)cc2)cc1F | 7.44 | 3.38 | 7.21 | 3.09 | 4.63 | 7.8 | 6.37 | 8.76 | 6.47 | 6.26 | 4060 | 848 | 3170 | 882 | 1230 | 3.9 | 3150 | 4.26 | 1180 | 2950
18 | O=C(Nc1nccs1)c1cc2c(cc1Cl)Sc1nccn1S2(=O)=O | 32.2 | 33.9 | 29.8 | 34.6 | 37.2 | 44.7 | 46 | 46.9 | 11.9 | 14.7 | 17700 | 12200 | 11700 | 17800 | 20000 | 18.9 | 21700 | 19.2 | 3000 | 4410
19 | O=C1/C(=C\C(Cl)=C/c2ccc([N+](=O)[O-])cc2)SC(=S)N1CCc1ccc(O)cc1 | 0.584 | 0.741 | 1.68 | 1.84 | 2.48 | 1.78 | 1.53 | 2.77 |  | 1.24 | 249 | 246 | 512 | 494 | 1050 | 0.342 | 447 | 0.831 | 327 | 324
20 | Clc1cc(Cl)c(Cl)c(-c2nc(-c3cccnc3)cs2)c1 | 72.3 | 42.5 | > 100 | > 100 | 51.4 | > 100 | 92.8 | 69.8 | > 100 | > 100 | 22200 | 16000 | 32800 | 4470 | 18800 | 8.78 | 32300 | 17.9 | > 100000 | 31000
21 | O=C1OCc2c1cc(F)cc2[N+](=O)[O-] | > 100 | > 100 | > 100 | > 100 | 69.6 | > 100 | > 100 | > 100 | > 100 | > 100 | > 100000 | > 100000 | > 100000 | > 100000 | 26800 | > 100 | > 100000 | > 100 | > 100000 | > 100000
22 | CCCc1cc2cc(-n3nc(C)c4c3CC(C)(C)CC4=O)cc(NC3CCC(O)CC3)c2c(=O)[nH]1 (centres undefined) | > 100 | > 100 | > 100 | > 100 | 3.34 | > 100 | > 100 | > 100 | > 100 | > 100 | 71.2 | 167 | 134 | 94.4 | 142 | 0.986 | 626 | 1.8 | 122 | 146
23 | CCN(CC)CCOc1ccc(/C(=C(\C)Cc2ccc(OC)cc2)c2ccc(OC(=O)NCc3ccccc3)cc2)cc1 | 3.58 | 3.23 | 6.11 | 3.26 | 3.3 | 11.8 | 14.6 | 10.7 | 4.31 | 3.02 | 1850 | 1530 | 2460 | 1700 | 1720 | 3.18 | 3630 | 2.87 | 1990 | 1520
24 | COc1cc(/C=C/C(=O)c2ccc(Nc3ncnc4ccccc34)cc2)cc(OC)c1 | 63.9 | 48.7 | 60.2 | 14.6 | > 100 | > 100 | 57.3 | 12.2 | 3.17 | 28.6 | 13900 | 7630 | 13500 | 3950 | 23800 | 6.52 | 20300 | 3.06 | 556 | 10500
25 | CN[C@]12CC3(C=CC(=O)C=C3)O[C@@]1(Cc1ccc(OC)cc1)N(C)C(=O)N2 | 4 | 10.3 | 4.1 | 7.6 | 7.85 | > 100 | 5.59 | 9.82 | 20.1 | 2.89 | 1670 | 1640 | 1780 | 1990 | 2690 | 3.46 | 2210 | 2.85 | 1150 | 1470
26 | Cn1cccc1-c1cc(-c2cccs2)[nH]c(=O)c1C#N | > 100 | > 100 | > 100 |  | > 100 | > 100 | > 100 | > 100 | > 100 | 27.5 | > 100000 | > 100000 | 23000 |  | > 100000 | > 100 | > 100000 | 20.6 | > 100000 | 13800
